Experimental findings from patent publication US11085022B2 (priority 2014, dated 2021) are described below.

Structures are written as SMILES.

For one data set, the system named is ear swelling model mice. In words: Degree of ear swelling in ear swelling model mice. It counts as in vivo. The note with it: 15 mg/kg; compared with the physiological saline group; difference in the weight of the ears. The procedure:
48 inflammation model mice were randomized to 4 groups, each group having 12 animals. […] A control group having 12 mice with primary tumor was also set. […] All the animals were administered at days 1, 2, 3, 4, 6, 8, and 10 after surgery, and a total of 7 administrations were presented. Groups given with the neutrophil granulocytes of the same density and the physiological saline of the same volume were also set and used as a blank control. The mice were administrated for 3 consecutive days, and then sacrificed by cervical vertebra dislocation after the 3 administrations. Round specimens were punched from the same portion of the left and the right ears by a 7 mm punch and weighed on an analytical balance. The degree of ear swelling was indicated by the difference in the weight of the ears, and the anti-inflammatory effects of the drugs were compared, as shown in FIG. 15.

A short description of data set [1]: In-vivo distribution and paw targeting in adjuvant arthritis model mice. As to conditions: mouse; for concentration at 0.5 h / concentration at 1 h / concentration at 2 h / concentration at 4 h / concentration at 8 h / concentration at 12 h: 15 mg/kg, iv ibuprofen 15 mg/kg. As to the method:
(§1) Adjuvant arthritis mouse model: The BCG vaccine was inactivated for 1 hr in a water bath at 80° C., and ground and mixed fully with autoclaved paraffin, to prepare a 10 mg/ml complete Freund adjuvant (CFA). 0.1 ml CFA was intracutaneously injected into the metatarsal in the right rear foot of the mice for inflammation induction.
72 mice with inflammation were randomized to 2 groups, each group having 36 animals. Before administration, the mice were fasted, but allowed to free access to water overnight. […] 0.167 h, 0.5 h, 1 h, 2 h, 4 h, 8 h, 12 h, 24 h, 48 h, 72 h, 96 h, and 120 h after administration, the eyeballs were removed to collect the blood, and then the mice were sacrificed. The heart, liver, spleen, kidney, and the metatarsal tissue in the right rear foot were removed, washed with physiological saline, and weighed after the residual physiological saline was aspirated off with filter paper.
The tissue samples (heart, liver, spleen, kidney, and metatarsal in the right rear foot) from the mice with inflammation were weighed, placed in a blood collection tube, added with 2 mL physiological saline, and dispersed by a tissue homogenizer at a high speed, to give a tissue homogenate. 200 μL acetonitrile was added to 200 μL of each tissue homogenate, vortexed for 5 min, and centrifuged for 10 min at 10000×g.
The paw targeting efficiency (Te) refers to the ratio of AUCs of the same preparation in the inflammatory site, that is, the paw, and in other tissues. […] The larger the Te is, the higher the selectivity of the preparation for the non-specific inflammatory site (the metatarsal in the right rear foot) will be, as compared with the selectivity for other comparative tissues.

In data set [2] the test system is adjuvant arthritis model mice. In words: Osteoarthritis index score in adjuvant arthritis model mice. Type of data set: in vivo. As to conditions: 15 mg/kg, 7 administrations; compared with the physiological saline group. As to the method:
as §1

Data set [3] in a line: In-vivo distribution and ear targeting in ear swelling model mice. The note with it: male, mouse, 15 mg/kg. As to the method:
Ear swelling mouse model: Round pieces of filter paper that were 7 mm in diameter and soaked with dimethyl benzene were tightly attached for 15 s to the right ears of clean-grade male mice weighed 18-22 g.
72 mice with inflammation were randomized to 2 groups, each group having 36 animals. Before administration, the mice were fasted, but allowed to free access to water overnight. […] 0.167 h, 0.5 h, 1 h, 2 h, 4 h, 8 h, 12 h, 24 h, 48 h, 72 h, 96 h, and 120 h after administration, the eyeballs were removed to collect the blood, and then the mice were sacrificed. The heart, liver, spleen, kidney, and ear tissues were removed, washed with physiological saline, and weighed after the residual physiological saline was aspirated off with filter paper.
The tissue samples (heart, liver, spleen, kidney, and ear) from the mice with inflammation were weighed, placed in a blood collection tube, added with 2 mL physiological saline, and dispersed by a tissue homogenizer at a high speed, to give a tissue homogenate. 200 μL acetonitrile was added to 200 μL of each tissue homogenate, vortexed for 5 min, and centrifuged for 10 min at 10000×g.
The ear targeting efficiency (Te) refers to the ratio of AUCs of the same preparation in the ear and in other tissues. […]

For a further data set, the system named is Streptococcus pneumoniae. In words: Survival time of streptococcal pneumonia model mice. Type of data set: in vivo. As to conditions: 10 mg/kg, 7 administrations. The procedure:
48 inflammation model mice were randomized to 4 groups, each group having 12 animals. […] All the animals were administered at days 1, 2, 3, 4, 6, 8, and 10 after surgery, and a total of 7 administrations were presented. Groups given with the neutrophil granulocytes of the same density and the physiological saline of the same volume were also set and used as a blank control.

With `CC(C)Cc1ccc(C(C)C(=O)O)cc1` (centres unmarked) [ibuprofen], the “degree of ear swelling” value in the data set with ear swelling model mice is recorded as “no obvious improvement”. Further, the “organ(s) with the largest distribution” value in data set [1] is recorded as “liver”. Also, in data set [1] (Distribution in Heart), the concentration at 0.5 h was found to be 6350 ng/g, the concentration at 1 h amounted to 4240 ng/g, the concentration at 2 h was 2990 ng/g and the concentration at 4 h is 1870 ng/g. Also, in data set [1] (Distribution in Heart), the concentration at 8 h was found to be 550 ng/g and the concentration at 12 h is 340 ng/g. For the same compound, in data set [1] (Distribution in Kidney), the concentration at 0.5 h worked out at 2790 ng/g, the concentration at 1 h worked out at 3900 ng/g, the concentration at 2 h was determined as 2680 ng/g and the concentration at 4 h is 1910 ng/g. In addition, in data set [1] (Distribution in Kidney), the concentration at 8 h stood at 620 ng/g and the concentration at 12 h was 450 ng/g. Moreover, in data set [1] (Distribution in Liver), the concentration at 0.5 h is 11900 ng/g, the concentration at 1 h is 10000 ng/g, the concentration at 2 h came to 8320 ng/g and the concentration at 4 h came to 7370 ng/g. In addition, in data set [1] (Distribution in Liver), the concentration at 8 h came out at 6330 ng/g and the concentration at 12 h came to 2000 ng/g. Besides, in data set [1] (Distribution in Spleen), the concentration at 0.5 h came to 6010 ng/g, the concentration at 1 h came to 3990 ng/g, the concentration at 2 h turned out to be 2420 ng/g and the concentration at 4 h is 1980 ng/g. In data set [1] (Distribution in Spleen), the concentration at 8 h worked out at 1210 ng/g and the concentration at 12 h was 670 ng/g. Also, in data set [1] (Distribution in paw), the concentration at 0.5 h is 430 ng/g, the concentration at 1 h worked out at 370 ng/g and the concentration at 2 h was found to be 210 ng/g. For the same compound, the “time at which the peak score occurs” value in data set [2] is given as “prolonged somewhat”. The compound further came in with a concentration at 1 h in data set [3] of 3990 ng/g.

`C[C@H]1COc2c(N3CCN(C)CC3)c(F)cc3c(=O)c(C(=O)O)cn1c23` [levofloxacin]: in the data set with Streptococcus pneumoniae, the survival time result is “about 21 days”.
